According to paper PMC6358866 (International Journal of Molecular Sciences, 2019):

How the values were obtained:
[1] = test system: Staphylococus aureus ATCC 6538 biofilm; assay: Activity against biofilms formed on polystyrene 96-well plates, 24 h exposure, resazurin; format: cell-based, Staphylococcus aureus
Procedure: (§1) Bacterial strains were obtained from the Polish Collection of Microorganisms (Polish Academy of Science, Wroclaw, Poland). […] The bacteria were cultured in a Mueller Hinton Broth II (MHB, Biocorp, Warsaw, Poland) overnight, under aerobic conditions at 37 °C. After incubation, the liquid cultures were centrifuged (2500 rpm for 10 min) and washed with phosphoric buffer (PBS, AppliChem, Darmstadt, Germany) three times and resuspended in fresh MHB II for inoculums appropriate for the performed assays.
(§2) Bacterial suspensions were added to 96-well plates (Kartell, Noviglio, Italy) at initial inoculums of ca. 5 × 10^8 CFU/mL and incubated under aerobic conditions with shaking (120 rpm) at 37 °C for 24 h. […] After exposure, the wells were washed three times with PBS and a solution of resazurin (Sigma Aldrich, St. Louis, MO, USA) in MHB II (0.01%) was added. This cell viability reagent is metabolized by bacterial dehydrogenases upon contact with living cells. As a result, the blue dye is reduced to a pink resorufin. After 1.5 h of incubation, the absorbance was measured at 570 and 600 nm using a microplate reader (Thermo Fisher Scientific, Waltham, MA, USA). […] The metabolic activity of bacteria in the samples was measured according to the following formula:
(§3) Metabolic activity (%) = (ΔAbs of sample − ΔAbs of negative control)/(ΔAbs of positive control − ΔAbs of negative control);
(§4) ΔAbs = absorbance at 570 nm − absorbance at 600 nm;
(§5) The presented results are the means of nine results obtained on three different days.

[2] = test system: Staphylococcus epidermidis ATCC 14990 biofilm; assay: as above; format: cell-based; settings: polystyrene plate, 24 h exposure in MHB II, resazurin
Procedure: as §1, §2, §3, §4, §5

[3] = test system: Enterococcus faecalis ATCC 29212 biofilm; assay: as above; format: cell-based; settings: polystyrene plate, 24 h exposure in MHB II
Procedure: as §1, §2, §3, §4, §5

[4] = test system: Escherichia coli ATCC 25922 biofilm; assay: as above; format: cell-based; settings: polystyrene plate, 24 h exposure in MHB II
Procedure: as §1, §2, §3, §4, §5

[5] = test system: Pseudomonas aeruginosa ATCC 9027 biofilm; assay: as above; format: cell-based; settings: lowest concentration reducing metabolic activity by at least 50 ± 5%; polystyrene plate, 24 h exposure in MHB II, resazurin
Procedure: as §1, §2, §3, §4, §5

[6] = test system: Staphylococcus epidermidis ATCC 14990 biofilm; assay: Activity against biofilms on 96-well plates after withdrawal of the antimicrobial (additional 24 h in MHB II); format: cell-based; settings: after withdrawal and additional 24 h in MHB II
Procedure: (§6) Bacterial strains were obtained from the Polish Collection of Microorganisms (Polish Academy of Science, Wroclaw, Poland). Three Gram-positive and two Gram-negative strains linked with CL-related infections were chosen for the study (Staphylococus aureus ATCC 6538, Staphylococcus epidermidis ATCC 14990, Pseudomonas aeruginosa ATCC 9027, Escherichia coli ATCC 25922, and Enterococcus faecalis ATCC 29212). The bacteria were cultured in a Mueller Hinton Broth II (MHB, Biocorp, Warsaw, Poland) overnight, under aerobic conditions at 37 °C. […] Bacterial suspensions were added to 96-well plates (Kartell, Noviglio, Italy) at initial inoculums of ca. 5 × 10^8 CFU/mL and incubated under aerobic conditions with shaking (120 rpm) at 37 °C for 24 h. […] After exposure, the wells were washed three times with PBS and a solution of resazurin (Sigma Aldrich, St. […] This cell viability reagent is metabolized by bacterial dehydrogenases upon contact with living cells. As a result, the blue dye is reduced to a pink resorufin. After 1.5 h of incubation, the absorbance was measured at 570 and 600 nm using a microplate reader (Thermo Fisher Scientific, Waltham, MA, USA). […] The procedure was conducted as described in Section 4.3, with the difference that after exposure to antimicrobials, the wells were washed three times with PBS and pure MHB II was added. The samples were incubated for another 24 h (aerobic conditions, 120 rpm shaking, 37 °C). […] The absorbance was measured at the same wave lengths and metabolic activity was calculated according to the formula given in Section 4.3. The presented results are means of nine results obtained on three different days.

[7] = test system: Enterococcus faecalis ATCC 29212 biofilm; assay: as above; format: cell-based; settings: after withdrawal and additional 24 h in MHB II; for concentration permanently eradicating the biofilm: EF biofilm on polystyrene
Procedure: as §6

[8] = test system: Escherichia coli ATCC 25922 biofilm; assay: as above; format: cell-based; settings: after withdrawal and additional 24 h in MHB II
Procedure: as §6

[9] = test system: Pseudomonas aeruginosa ATCC 9027 biofilm; assay: as above; format: cell-based; settings: lowest concentration giving permanent reduction of metabolic activity by at least 50 ± 5%; after withdrawal and additional 24 h in MHB II
Procedure: as §6

[10] = lowest concentration reducing metabolic activity by at least 50 ± 5%
[11] = lowest concentration reducing metabolic activity by at least 90 ± 5%, mean of nine results
[12] = lowest concentration giving permanent reduction of metabolic activity by at least 50 ± 5%
[13] = lowest concentration giving permanent reduction of metabolic activity by at least 90 ± 5%

(C10)2-KKKK-NH2 [Lipopeptide]
reduction in the metabolic activity ([1]; SA biofilm on polystyrene, 24 h exposure, 32 mg/L and higher): over 90%
MBEC 50 ([1]; lowest concentration reducing metabolic activity by at least 50 ± 5%, polystyrene plate, 24 h exposure in MHB II, resazurin): 8 mg/L
MBEC 90 ([1]; lowest concentration reducing metabolic activity by at least 90 ± 5%, polystyrene plate, 24 h exposure in MHB II, resazurin, mean of nine results): 32 mg/L
MBEC 50 [2, 10]: 16 mg/L
MBEC 90 [2, 11]: 16 mg/L
MBEC 50 [3, 10]: 16 mg/L
MBEC 90 [3, 11]: 32 mg/L
MBEC 50 [4, 10]: 64 mg/L
MBEC 90 [4, 11]: 64 mg/L
MBEC 50 [5]: 64 mg/L
concentration giving a permanent antibiofilm effect ([6]; SE biofilm on polystyrene): 16 mg/L
MBEC II 50 [6, 12]: 16 µg/mL
MBEC II 90 [6, 13]: 16 µg/mL
concentration permanently eradicating the biofilm ([7]; listed as (C10)2-KKKK-NH2): 32 mg/L
concentration permanently eradicating the biofilm ([7]; listed as lipopeptide): 32 to 256 mg/L
MBEC II 50 [7, 12]: 32 µg/mL
MBEC II 90 [7, 13]: 32 µg/mL
MBEC II 50 [8, 12]: 64 µg/mL
MBEC II 90 [8, 13]: 64 µg/mL
MBEC II 50 [9]: 64 µg/mL
